Test results: paper PMC12290280 (Plant and Cell Physiology, 2025)

Tests used:
Assay in all cases: radiometric in vitro kinase assay, autoradiography
Format in all cases: biochemical
His-OST1 = biological target: T1, His-OST1 (Arabidopsis thaliana, UniProt Q940H6); settings: 200 µM ATP plus [γ-32P]ATP, 10 mM MgCl2, pH 7.5, room temperature
T1 construct: gene SRK2E; 6 x His tag, expressed in E. coli BL21 (DE3); plasmid from Takahashi et al. 2020
T1 sequence (Q940H6 1-362): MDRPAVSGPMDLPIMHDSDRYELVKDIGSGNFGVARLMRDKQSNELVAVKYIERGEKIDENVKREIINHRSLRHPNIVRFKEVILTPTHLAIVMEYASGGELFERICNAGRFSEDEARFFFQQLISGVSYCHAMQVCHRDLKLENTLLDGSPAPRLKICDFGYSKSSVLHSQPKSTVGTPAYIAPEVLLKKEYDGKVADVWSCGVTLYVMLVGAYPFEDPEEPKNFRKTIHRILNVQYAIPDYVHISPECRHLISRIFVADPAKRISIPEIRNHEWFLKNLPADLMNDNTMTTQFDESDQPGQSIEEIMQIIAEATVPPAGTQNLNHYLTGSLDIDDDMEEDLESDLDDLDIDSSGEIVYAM

His-M3K∂6 = biological target: T2, His-M3K∂6 (Arabidopsis thaliana, UniProt Q9C9U5); settings: autophosphorylation and histone phosphorylation; 200 µM ATP plus [γ-32P]ATP, labelled compound; 10 mM MgCl2; pH 7.5; room temperature
T2 construct: gene SIS8; 6 x His tag, expressed in E. coli BL21 (DE3); plasmid from Takahashi et al. 2020
T2 sequence (Q9C9U5 1-1030): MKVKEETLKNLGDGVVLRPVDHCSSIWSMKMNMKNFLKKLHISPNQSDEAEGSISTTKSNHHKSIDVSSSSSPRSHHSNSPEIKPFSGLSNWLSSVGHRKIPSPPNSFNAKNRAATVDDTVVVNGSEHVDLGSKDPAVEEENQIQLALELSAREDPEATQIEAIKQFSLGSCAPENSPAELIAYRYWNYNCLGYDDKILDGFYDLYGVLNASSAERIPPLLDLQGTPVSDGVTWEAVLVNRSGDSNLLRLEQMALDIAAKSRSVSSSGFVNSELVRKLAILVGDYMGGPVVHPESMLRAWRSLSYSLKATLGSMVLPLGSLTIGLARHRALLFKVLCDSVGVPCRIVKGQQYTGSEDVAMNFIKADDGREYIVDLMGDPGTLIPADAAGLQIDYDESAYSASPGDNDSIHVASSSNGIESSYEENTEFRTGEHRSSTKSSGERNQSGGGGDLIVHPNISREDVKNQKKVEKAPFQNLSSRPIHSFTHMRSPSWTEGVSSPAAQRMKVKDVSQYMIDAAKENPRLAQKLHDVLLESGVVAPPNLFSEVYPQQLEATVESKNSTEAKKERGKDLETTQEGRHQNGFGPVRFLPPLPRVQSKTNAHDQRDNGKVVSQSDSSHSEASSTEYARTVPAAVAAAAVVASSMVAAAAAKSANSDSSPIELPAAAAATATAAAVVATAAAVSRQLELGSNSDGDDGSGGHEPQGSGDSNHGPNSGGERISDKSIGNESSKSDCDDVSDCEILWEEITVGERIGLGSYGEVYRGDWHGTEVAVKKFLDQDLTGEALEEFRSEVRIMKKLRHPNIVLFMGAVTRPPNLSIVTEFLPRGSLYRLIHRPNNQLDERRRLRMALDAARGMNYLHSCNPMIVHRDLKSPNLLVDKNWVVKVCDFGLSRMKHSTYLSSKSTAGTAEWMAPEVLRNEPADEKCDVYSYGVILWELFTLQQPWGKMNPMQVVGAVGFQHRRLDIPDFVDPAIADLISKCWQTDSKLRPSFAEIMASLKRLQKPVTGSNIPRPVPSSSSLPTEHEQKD

His-Raf12 = biological target: T3, His-Raf12 (Arabidopsis thaliana, UniProt F4JMR7); settings: autophosphorylation and histone phosphorylation; 200 µM ATP plus [γ-32P]ATP, labelled compound; 10 mM MgCl2; pH 7.5; room temperature
T3 construct: gene At4g23050; 6 x His tag, pET30a(+), expressed in E. coli BL21 (DE3); insert from cDNA of ABA-treated Col-0 leaf epidermis
T3 sequence (F4JMR7 1-735): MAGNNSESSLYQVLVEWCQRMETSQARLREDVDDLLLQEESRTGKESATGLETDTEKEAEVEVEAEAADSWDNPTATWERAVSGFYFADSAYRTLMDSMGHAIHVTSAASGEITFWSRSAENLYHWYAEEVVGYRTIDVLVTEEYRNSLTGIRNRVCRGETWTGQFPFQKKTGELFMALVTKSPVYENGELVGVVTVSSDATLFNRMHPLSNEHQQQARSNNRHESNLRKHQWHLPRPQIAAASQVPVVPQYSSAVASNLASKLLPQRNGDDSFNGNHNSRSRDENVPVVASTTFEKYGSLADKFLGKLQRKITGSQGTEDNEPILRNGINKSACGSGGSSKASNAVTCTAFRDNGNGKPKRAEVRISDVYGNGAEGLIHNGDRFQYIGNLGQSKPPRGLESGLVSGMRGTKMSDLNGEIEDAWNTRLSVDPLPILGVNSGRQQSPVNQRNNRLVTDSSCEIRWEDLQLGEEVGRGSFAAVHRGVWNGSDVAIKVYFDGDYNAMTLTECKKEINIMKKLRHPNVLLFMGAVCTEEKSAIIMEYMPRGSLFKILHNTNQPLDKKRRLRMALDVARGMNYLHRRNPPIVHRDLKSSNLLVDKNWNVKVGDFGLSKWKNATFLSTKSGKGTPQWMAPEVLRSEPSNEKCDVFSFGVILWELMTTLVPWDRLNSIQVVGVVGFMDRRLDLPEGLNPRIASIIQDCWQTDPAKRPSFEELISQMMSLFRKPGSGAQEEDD

| Compound | radiometric in vitro kinase assay, autoradiography (His-OST1; autophosphorylation and histone phosphorylation, labelled compound) | radiometric in vitro kinase assay, autoradiography (His-M3K∂6) | radiometric in vitro kinase assay, autoradiography (His-Raf12) | radiometric in vitro kinase assay, autoradiography (His-OST1; 100 µM K252a, 20 min preincubation, histone substrate) |
| --- | --- | --- | --- | --- |
| Nc1ncnc2c1ncn2[C@@H]1O[C@H](COP(=O)(O)OP(=O)(O)OP(=O)(O)O)[C@@H](O)[C@H]1O [ATP] | His-OST1 autophosphorylated and phosphorylated histone proteins as a substrate | we conducted protein phosphorylation assays using Raf-like kinases in both of these clades | the kinase activity of Raf12, a B2 clade Raf-like kinase, was not inhibited by PP242 | – |
| COC(=O)[C@@]1(O)C[C@H]2O[C@]1(C)n1c3ccccc3c3c4c(c5c6ccccc6n2c5c31)C(=O)NC4 [K252a] | – | – | – | Kinase activity of His-OST1 was partially decreased by K252a, a potent kinase inhibitor |
